Measured values reported in patent US10842765B2, “Methods of reducing or preventing oxidation of small dense ldl or membrane polyunsaturated fatty acids” (Amarin Pharmaceuticals Ireland Limited, priority 2016, dated 2020).

Key:
human sdLDL [1] = assay: Copper-induced sdLDL oxidation, TBARS, Example 7; type: biochemical; conditions: each agent 10 μM; 1 hr
Method: Samples were prepared at 100 μg/mL sdLDL and incubated with EPA or DHA (10.0 μM each) for 30 minutes prior to initiating lipid oxidation using 10 μM CuSO4. Samples were maintained at 37° C. in a shaking water bath for 1 hour. Lipid oxidation was measured by colorimetric assay of TBARS formation and expressed as molar equivalents of MDA.
An experiment to study the antioxidant effect of EPA in LDL and small dense LDL (“sdLDL”) was performed. LDL and sdLDL were isolated from the plasma of healthy volunteers by iodixanol density gradient ultracentrifugation, and adjusted to a final apolipoprotein concentration of 2 mg/mL. […] Lipid oxidation was initiated with 10 μM CuSO4 and monitored by the colorimetric detection of thiobarbituric acid reactive substances (TBARS) for 1 hr. Vitamin E was also incubated with sample aliquots as a positive control.

human LDL = assay: Copper-induced unfractionated LDL oxidation, TBARS, Example 7; type: biochemical; conditions: each agent 10.0 μM; 1 hour
HMG-CoA reductase = target: T1, HMG-CoA reductase (Homo sapiens, UniProt P04035); conditions: primary pharmacokinetic studies; hepatic cytochrome P450 metabolism; cited from earlier work
T1 sequence (P04035 1-888): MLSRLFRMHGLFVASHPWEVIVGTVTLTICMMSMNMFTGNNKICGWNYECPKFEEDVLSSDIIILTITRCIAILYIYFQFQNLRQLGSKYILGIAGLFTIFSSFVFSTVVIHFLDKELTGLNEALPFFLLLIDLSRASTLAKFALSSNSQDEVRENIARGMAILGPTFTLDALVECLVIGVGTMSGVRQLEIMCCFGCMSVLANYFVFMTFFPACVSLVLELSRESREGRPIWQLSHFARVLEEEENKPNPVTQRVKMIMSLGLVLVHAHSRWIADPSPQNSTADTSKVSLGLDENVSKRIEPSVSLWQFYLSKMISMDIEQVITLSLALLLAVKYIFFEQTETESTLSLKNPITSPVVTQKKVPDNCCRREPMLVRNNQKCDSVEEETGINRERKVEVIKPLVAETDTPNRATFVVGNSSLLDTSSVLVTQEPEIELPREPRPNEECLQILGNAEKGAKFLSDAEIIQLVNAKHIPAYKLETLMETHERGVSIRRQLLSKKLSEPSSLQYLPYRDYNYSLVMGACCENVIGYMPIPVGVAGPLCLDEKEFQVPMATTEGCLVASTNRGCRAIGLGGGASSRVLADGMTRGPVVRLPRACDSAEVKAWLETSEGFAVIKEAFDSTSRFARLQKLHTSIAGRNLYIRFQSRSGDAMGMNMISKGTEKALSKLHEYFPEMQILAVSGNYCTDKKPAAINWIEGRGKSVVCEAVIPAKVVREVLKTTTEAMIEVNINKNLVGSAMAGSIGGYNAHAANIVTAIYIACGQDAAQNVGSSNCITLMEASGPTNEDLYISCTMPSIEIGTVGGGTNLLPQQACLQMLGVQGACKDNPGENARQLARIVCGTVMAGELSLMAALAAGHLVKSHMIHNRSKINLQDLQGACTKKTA

[2] = tested on: small dense LDL (sdLDL) isolated from human subjects; assay: Glucose-induced sdLDL oxidation (MDA/TBARS), Example 10; type: biochemical; conditions: 10 μM; glucose 200 mg/dL; 1 hr
Method: Vitamin E (α-tocopherol) purchased from Sigma-Aldrich was prepared in ethanol at 1.0 mM (ε=3.06×10^4 M^−1 cm^−1 at 294 nm) prior to experimental use. Test compounds were further diluted in ethanol or aqueous buffer as needed. Phosphate Buffered Saline (PBS) purchased from Sigma-Aldrich was prepared in double distilled water at 10 mM (138 mM NaCl, 2.7 mM KC, pH 7.4). Glucose prepared in PBS was added to test samples to achieve a final concentration of 11.0 mM (200 mg/dL).
LDL and sdLDL were isolated from the plasma of healthy volunteers by iodixanol density gradient ultracentrifugation and adjusted to a final apolipoprotein concentration of 10 mg/mL. […] Sample aliquots were incubated at 100° C. for 30 minutes and then assayed for the formation of thiobarbituric acid-reactive substances (TBARS), having a molar absorptivity (ε) value of 1.56×10^5 M^−1 cm^−1 at 532 nm and were derived principally from the reaction of thiobarbituric acid with malondialdehyde (MDA). Lipid oxidation was measured by the colorimetric detection of malondialdehyde (MDA), a marker of oxidative stress.
Data were presented as mean±SD for (n) separate samples or experiments. Differences between groups were analyzed using the unpaired, two-tailed Student's t-test (for comparisons between only two groups) or ANOVA followed by Student-Newman-Keuls multiple comparisons post hoc analysis (for comparisons between three or more groups). Only differences with probability values less than 0.05 were considered significant.

[3] = Glucose-induced membrane lipid peroxidation (LOOH) in lipid vesicles, Example 4; type: biochemical; conditions: 72- and 96-hour time points; 1:30 drug-to-phospholipid mole ratio; glucose
Method: An experiment was conducted to test the ability of EPA to interfere with the effects of high glucose on membrane lipid peroxidation and organization in vesicles enriched with PUFAs. […] Vitamin E (α-tocopherol) was also purchased from Sigma-Aldrich and prepared in ethanol at 1.0 mM (ε=3.06×10^4 M^−1 cm^−1 at 294 nm) just prior to experimental use. […] All test compounds were further diluted in ethanol or aqueous buffer as needed. Glucose was prepared in saline buffer (0.5 mM HEPES, 154 mM NaCl, pH 7.3) at 11.0 mM (200 mg/dL). CHOD-iodide color reagent (stock) was prepared, with slight modification, as described by from El-Saadani et al. (J. […] Samples were shell-dried under nitrogen gas and placed under vacuum for 1 h to remove residual solvent. […] Lipid suspensions were then vortexed for 3 min at ambient temperature to form MLVs. All MLV samples were subjected to time-dependent autoxidation by incubating at 37° C. in an uncovered, shaking water bath. This method allows lipid peroxidation to occur gradually without requiring the use of exogenous initiators. Small aliquots (5-100 μL) of each sample were removed, immediately following MLV preparation (0 hour) and after exposing samples to oxidative conditions for 72 or 96 hour, and combined with 1.0 mL of activated CHOD-iodide color reagent. Aliquot volume was reduced with each successive time point to ensure that spectrophotometric readings were within the optimal adsorption range. Test samples were covered and incubated in darkness at room temperature for at least 4 hr. Sample absorbances were then measured against a CHOD blank at 365 nm using a Beckman DU-640 spectrophotometer. The CHOD colorimetric assay is based on the oxidation of iodide (I^−) by lipid hydroperoxide (LOOH) to form triiodide (I3^−), the quantity of which is directly proportional to the amount of LOOH present in the lipid sample. The molar absorptivity (I3^−) of I3^− is 2.46×10^4 M^−1 cm^−1 at 365 nm. […]

human sdLDL [4] = assay: Copper-induced sdLDL oxidation, TBARS after 2 hr, Example 6; type: biochemical; conditions: 1.0 μM to 10.0 μM
Method: An experiment to study the antioxidant effect of EPA in small dense […] performed. […] Vitamin E (α-tocopherol) was purchased from Sigma-Aldrich and prepared in ethanol at 1.0 mM (ε=3.06×10^4 M^-1 cm^-1 at 294 nm) just prior to experimental use. All test compounds were further diluted in ethanol or aqueous buffer as needed. Venous blood was collected from healthy volunteers into vacutainer tubes containing sodium EDTA. Plasma was separated by centrifugation at 3000 g for 25 min at 4° C. and adjusted to a density of 1.020 g/mL with KBr. Triglyceride-rich lipoproteins (TGRL) and LDL fractions were then isolated bysequential centrifugation at 70,000 rpm at 4° C. in a Beckman LE-80 ultracentrifuge using a Beckman 50.4Ti rotor (Beckman Coulter, Inc., Fullerton, Calif.). The TGRL fraction (with a relative density of <1.020) was aspirated from the top of the centrifugate and discarded, leaving an LDL-enriched […] relative density of 1.020 to 1.063). […] The sdLDL subfraction was retained for additional experimentation. Plasma and lipoprotein fractions were maintained at 4° C. and protected from excessive exposure to light. […] Differences between groups were analyzed using the two-tailed, Student's t-test (for comparisons between only two groups) or ANOVA followed by Dunnett or Student-Newman-Keuls multiple comparisons post-hoc analysis (for comparisons between three or more groups).

unfractionated LDL = assay: Copper-induced unfractionated LDL oxidation, TBARS, Example 6; type: biochemical, human; conditions: 1.0 μM to 10.0 μM; data not shown
Method: All test compounds were further diluted in ethanol or aqueous buffer as needed. Venous blood was collected from healthy volunteers into vacutainer tubes containing sodium EDTA. […] Plasma and lipoprotein fractions were maintained at 4° C. and protected from excessive exposure to light. Prior to oxidation experiments, EDTA was removed from the lipoprotein fraction using PD-10 desalting columns (GE Healthcare, Piscataway N.J.). After equilibration of the column with phosphate buffered saline (PBS), 2.5 mL of the lipoprotein fraction was loaded on the column and the flow-through discarded. The lipoprotein was then eluted with 3 mL of PBS. The LDL fractions were further diluted with PBS to obtain a 100 μg/mL apoB100 concentration. […] Differences between groups were analyzed using the two-tailed, Student's t-test (for comparisons between only two groups) or ANOVA followed by Dunnett or Student-Newman-Keuls multiple comparisons post-hoc analysis (for comparisons between three or more groups).

Compound	inhibition of sdLDL oxidation (TBARS formation) vs vehicle (human sdLDL [1]) [%]	effect on unfractionated LDL oxidation (human LDL)	share of circulating HMG-CoA reductase inhibitory activity accounted for by active metabolites (HMG-CoA reductase)	inhibition of glucose-induced sdLDL oxidation (in words) [2]	effect on LOOH formation / lipid peroxidation [3]	inhibition of sdLDL oxidation (human sdLDL [4])	inhibition of LDL oxidation (unfractionated LDL)	increase of sdLDL oxidation as compared to glucose-treated controls [2] [%]
CC(C)c1c(C(=O)Nc2ccccc2)c(-c2ccccc2)c(-c2ccc(F)cc2)n1CC[C@@H](O)C[C@@H](O)CC(=O)O [atorvastatin]	0.1±7	did not have any significant antioxidant activity	approximately 70%					
O=C(O)c1cccnc1 [Niacin, nicotinic acid]		no significant effect on unfractionated LDL oxidation		did not inhibit glucose-induced sdLDL oxidation				
Cc1c(C)c2c(c(C)c1O)CC[C@@](C)(CCC[C@H](C)CCC[C@H](C)CCCC(C)C)O2 [vitamin E, α-tocopherol]		no significant effect on unfractionated LDL oxidation		failed to inhibit sdLDL oxidation	no significant effect on lipid peroxidation	did not inhibit sdLDL oxidation except at the highest concentration	did not inhibit LDL oxidation at any concentration	63
Cc1ccc(C)c(OCCCC(C)(C)C(=O)O)c1 [Gemfibrozil, gemfibrozil]		no significant effect on unfractionated LDL oxidation		did not inhibit glucose-induced sdLDL oxidation				
